# Test results published in article PMC10574761, “Novel 1,2,3-Triazole-Containing Quinoline–Benzimidazole Hybrids: Synthesis, Antiproliferative Activity, In Silico ADME Predictions, and Docking” (Molecules, 2023).
# Experiments:
# [1] = tested on: MRC-5 (human fetal lung fibroblasts, non-tumor); assay: MTT proliferation assay, MRC-5; type: cell-based; settings: MRC5, 72 h treatment
# Method: (§1) The effect of the new synthesized compounds was tested on five human tumor cell lines, HeLa (human cervical adenocarcinoma; from ATCC), CaCo-2 (human colorectal adenocarcinoma), HL-60 (acute promyelocytic leukemia), HuT78 (T-cell lymphoma) and THP-1 (acute monocytic leukemia), and on one non-tumor cell line, MRC-5 (human fetal lung fibroblasts). The MRC-5 cells were used between 24 and 26 passages. The cells were cultured in two different types of media: DMEM (Gibco, EU) and RPMI 1640 (Gibco, EU). Both media were supplemented with 2 mM glutamine, fetal bovine serum (10%; heat inactivated) and antibiotics (100 U penicillin and 0.1 mg streptomycin). RPMI 1640 was additionally supplemented with 10 mM HEPES and 1 mM sodium pyruvate. The cells growing in a monolayer were cultured in DMEM, while the cells growing in suspension were cultured in RPMI 1640. The cells were grown in humidified atmosphere under the conditions of 37 °C/5% CO2 gas in the CO2 incubator (IGO 150 CELLlife^TM, JOUAN, Thermo Fisher Scientific, Waltham, MA, USA).
# (§2) Growth-inhibitory activity was assessed using a slightly modified procedure based on the National Cancer Institute’s protocol. Briefly, the cells were seeded in 96-well microtiter plates and incubated for 24 h. They were then treated with 10^−7 to 10^−4 M concentrations of the tested compounds for an additional 72 h. After the treatment period, the effects of the tested compounds on the growth rate of the cells were examined using the MTT assay. Absorbance was measured at 595 nm using a microplate reader. […] The selectivity index was calculated according to the following formula: SI=IC50 value of normal cell line/IC50 value of cancer cell line
# (§3) The effect of each concentration was analyzed by plotting the logarithm of the concentration of the evaluated compound against the corresponding percentage inhibition value using least squares.
# [2] = tested on: THP-1 (acute monocytic leukemia); assay: MTT proliferation assay, THP-1; type: cell-based, human; settings: Homo sapiens, THP-1; 72 h treatment, MTT
# Method: as §1, §2, §3
# [3] = tested on: Hut78 (T-cell lymphoma); assay: MTT proliferation assay, HuT78; type: cell-based, human; settings: Homo sapiens, HuT78; 72 h treatment, MTT
# Method: as §1, §2, §3
# [4] = tested on: HL-60 (acute promyelocytic leukemia); assay: MTT proliferation assay, HL-60; type: cell-based; settings: Homo sapiens, 72 h treatment
# Method: as §1, §2, §3
# [5] = tested on: HeLa (human cervical adenocarcinoma); assay: MTT proliferation assay, HeLa; type: cell-based; settings: 72 h treatment
# Method: as §1, §2, §3
# [6] = tested on: CaCo-2 (human colorectal adenocarcinoma); assay: MTT proliferation assay, CaCo-2; type: cell-based; settings: 72 h treatment
# Method: as §1, §2, §3
Structure (SMILES),IC50 [1] [µM],IC50 [2] [µM],IC50 [3] [µM],IC50 [4] [µM],IC50 [5] [µM],IC50 [6] [µM],melting point [°C]
"O=c1[nH]cc(F)c(=O)[nH]1 [Compound 5-FU, 5-fluorouracil, reference compound]",54.1,76.4,> 100,> 100,–,–,–
"Clc1ccc2c(-n3cc(COc4ccc(-c5nc6ccccc6[nH]5)cc4)nn3)ccnc2c1 [Compound 9a, 4-(4-{[4-(1H-benzo[d]imidazol-2-yl)phenoxy]methyl}-1H-1,2,3-triazol-1-yl)-7-chloroquinoline]",> 100,> 100,100,> 100,> 100,> 100,143 to 145
"Clc1ccc2[nH]c(-c3ccc(OCc4cn(-c5ccnc6cc(Cl)ccc56)nn4)cc3)nc2c1 [Compound 9b, 7-chloro-4-(4-{[4-(5-chloro-1H-benzo[d]imidazol-2-yl)phenoxy]methyl}-1H-1,2,3-triazol-1-yl)quinoline]",100,> 100,92.9 ± 4.3,> 100,94.1,> 100,168 to 170
"Cl.Cl.Cl.N=C(N)c1ccc2[nH]c(-c3ccc(OCc4cn(-c5ccnc6cc(Cl)ccc56)nn4)cc3)nc2c1 [Compound 9d, 2-(4-{[1-(7-chloroquinolin-4-yl)-1H-1,2,3-triazol-4-yl]methoxy}phenyl)-1H-benzo[d]imidazol-5-carboximidamide trihydrochloride]",> 100,> 100,2.52,> 100,> 100,> 100,240 to 242
"CCCNC(=N)c1ccc2[nH]c(-c3ccc(OCc4cn(-c5ccnc6cc(Cl)ccc56)nn4)cc3)nc2c1.Cl.Cl.Cl [Compound 9e, 2-(4-{[1-(7-chloroquinolin-4-yl)-1H-1,2,3-triazol-4-yl]methoxy}phenyl)-N-propyl-1H-benzo[d]imidazol-5-carboximidamide trihydrochloride]",> 100,> 100,10.2,98.3,> 100,> 100,228 to 230
"Clc1ccc2c(-n3cc(COc4ccc(-c5nc6ccccc6[nH]5)cc4Br)nn3)ccnc2c1 [Compound 10a, 4-(4-{[4-(1H-benzo[d]imidazol-2-yl)-2-bromophenoxy]methyl}-1H-1,2,3-triazol-1-yl)-7-chloroquinoline]",52.1,9.6,5.88,76.1,10,63.8,252 to 254
"Clc1ccc2[nH]c(-c3ccc(OCc4cn(-c5ccnc6cc(Cl)ccc56)nn4)c(Br)c3)nc2c1 [Compound 10b, 4-(4-{[2-bromo-4-(5-chloro-1H-benzo[d]imidazol-2-yl)phenoxy]methyl}-1H-1,2,3-triazol-1-yl)-7-chloroquinoline]",> 100,10.6,6.43,55.2,8.11,10.9,–
"COc1ccc2[nH]c(-c3ccc(OCc4cn(-c5ccnc6cc(Cl)ccc56)nn4)c(Br)c3)nc2c1 [Compound 10c, 4-(4-{[2-bromo-4-(5-methoxy-1H-benzo[d]imidazol-2-yl)phenoxy]methyl}-1H-1,2,3-triazol-1-yl)-7-chloroquinoline]",8.54,6.23,3.89,18.2,9.86,9.92,170 to 172
"Cl.Cl.Cl.N=C(N)c1ccc2[nH]c(-c3ccc(OCc4cn(-c5ccnc6cc(Cl)ccc56)nn4)c(Br)c3)nc2c1 [Compound 10d, 2-(3-bromo-4-{[1-(7-chloroquinolin-4-yl)-1H-1,2,3-triazol-4-yl]methoxy}phenyl)-1H-benzo[d]imidazol-5-carboximidamide trihydrochloride]",> 100,> 100,> 100,> 100,> 100,> 100,200 to 202
"Clc1ccc2c(NCCn3cc(COc4ccc(-c5nc6ccccc6[nH]5)cc4)nn3)ccnc2c1 [Compound 14a, N-[2-(4-{[4-(1H-benzo[d]midazole-2-yl)phenoxy]methyl}-1H-1,2,3-triazol-1-yl)ethyl]-7-chloroquinolin-4-amine]",> 100,> 100,> 100,> 100,> 100,> 100,221 to 223
"Clc1ccc2[nH]c(-c3ccc(OCc4cn(CCNc5ccnc6cc(Cl)ccc56)nn4)cc3)nc2c1 [Compound 14b, 7-chloro-N-[2-(4-{[4-(5-chloro-1H-benzo[d]imidazol-2-yl)phenoxy]methyl}-1H-1,2,3-triazol-1-yl)ethyl]quinolin-4-amine]",> 100,> 100,> 100,> 100,> 100,> 100,213 to 215
"COc1ccc2[nH]c(-c3ccc(OCc4cn(CCNc5ccnc6cc(Cl)ccc56)nn4)cc3)nc2c1 [Compound 14c, 7-chloro-N-[2-(4-{[4-(5-methoxy-1H-benzo[d]imidazol-2-yl)phenoxy]methyl}-1H-1,2,3-triazol-1-yl)ethyl]quinolin-4-amine]",> 100,7.31,> 100,> 100,> 100,> 100,150 to 152
"Cl.Cl.Cl.N=C(N)c1ccc2[nH]c(-c3ccc(OCc4cn(CCNc5ccnc6cc(Cl)ccc56)nn4)cc3)nc2c1 [Compound 14d, 2-{4-[(1-{2-[(7-chloroquinolin-4-yl)amino]ethyl}-1H-1,2,3-triazol-4-yl)methoxy]phenyl}-1H-benzo[d]imidazol-5-carboximidamide trihydrochloride]",> 100,> 100,10.5,> 100,> 100,> 100,227 to 229
"Clc1ccc2c(NCCn3cc(COc4ccc(-c5nc6ccccc6[nH]5)cc4Br)nn3)ccnc2c1 [Compound 15a, N-[2-(4-{[4-(1H-benzo[d]imidazol-2-yl)-2-bromophenoxy]methyl}-1H-1,2,3-triazol-1-yl)ethyl]-7-chloroquinolin-4-amine]",> 100,4.66,7.88,11.6,> 100,> 100,155 to 157
"Clc1ccc2[nH]c(-c3ccc(OCc4cn(CCNc5ccnc6cc(Cl)ccc56)nn4)c(Br)c3)nc2c1 [Compound 15b, N-[2-(4-{[2-bromo-4-(5-chloro-1H-benzo[d]imidazol-2-yl)phenoxy]methyl}-1H-1,2,3-triazol-1-yl)ethyl]-7-chloroquinolin-4-amine]",> 100,2.06,4.91,1.24,> 100,> 100,100 to 102
"COc1ccc2[nH]c(-c3ccc(OCc4cn(CCNc5ccnc6cc(Cl)ccc56)nn4)c(Br)c3)nc2c1 [Compound 15c, N-[2-(4-{[2-bromo-4-(5-methoxy-1H-benzo[d]imidazol-2-yl)phenoxy]methyl}-1H-1,2,3-triazol-1-yl)ethyl]-7-chloroquinolin-4-amine]",> 100,1.65,3.98,2.62,> 100,> 100,92 to 94
"Cl.Cl.Cl.N=C(N)c1ccc2[nH]c(-c3ccc(OCc4cn(CCNc5ccnc6cc(Cl)ccc56)nn4)c(Br)c3)nc2c1 [Compound 15d, 2-{3-bromo-4-[(1-{2-[(7-chloroquinolin-4-yl)amino]ethyl}-1H-1,2,3-triazol-4-yl)methoxy]phenyl}-1H-benzo[d]imidazol-5-carboximidamide trihydrochloride]",> 100,> 100,> 100,> 100,> 100,> 100,215 to 217
